In the NIST ThermoML archive (doi:10.1016/j.jct.2016.03.026):
Where “and” joins values, the source holds several entries; their conditions need not be identical. Equal entries are not always repeated. ± gives the expanded uncertainty stated by the source.

Experiment: xn = mol fraction of the nth substance listed
Conditions: Fluid (supercritical or subcritical phases); for mass density: 293.15 K, Vibrating tube method, x1 = 0.97; for speed of sound: 298.13 K, Frequency=5 MHz, Pulse-echo method

O=C=O [carbon dioxide] + CO
Conditions | mass density [kg/m3]
14700 kPa | 904.75 ± 0.81
14725 kPa | 904.95 ± 0.81
14750 kPa | 905.15 ± 0.81
14775 kPa | 905.36 ± 0.81
14800 kPa | 905.48 ± 0.81
14825 kPa | 905.68 ± 0.81
14850 kPa | 905.88 ± 0.81
14875 kPa | 906.06 ± 0.81
14900 kPa | 906.27 ± 0.81
14925 kPa | 906.44 ± 0.81
14950 kPa | 906.59 ± 0.81
14975 kPa | 906.77 ± 0.81
15000 kPa | 906.96 ± 0.81
15025 kPa | 907.15 ± 0.81
15050 kPa | 907.32 ± 0.81
15075 kPa | 907.46 ± 0.81
15100 kPa | 907.6 ± 0.81
15125 kPa | 907.83 ± 0.81
15150 kPa | 907.99 ± 0.81
15175 kPa | 908.18 ± 0.81
15200 kPa | 908.32 ± 0.81
15225 kPa | 908.49 ± 0.81
15250 kPa | 908.66 ± 0.81
15275 kPa | 908.85 ± 0.81
15300 kPa | 909.03 ± 0.81
15325 kPa | 909.22 ± 0.81
15350 kPa | 909.37 ± 0.81
15375 kPa | 909.52 ± 0.81
15400 kPa | 909.68 ± 0.81
15425 kPa | 909.89 ± 0.81
15450 kPa | 910.03 ± 0.81
15475 kPa | 910.14 ± 0.81
15500 kPa | 910.23 ± 0.81
15525 kPa | 910.31 ± 0.81
15550 kPa | 910.48 ± 0.81
15575 kPa | 910.7 ± 0.81
15600 kPa | 910.88 ± 0.81
15625 kPa | 911.01 ± 0.81
15650 kPa | 911.21 ± 0.81
15675 kPa | 911.37 ± 0.81
15700 kPa | 911.59 ± 0.81
15725 kPa | 911.74 ± 0.81
15750 kPa | 911.86 ± 0.81
15775 kPa | 912.03 ± 0.81
15800 kPa | 912.19 ± 0.81
15825 kPa | 912.36 ± 0.81
15850 kPa | 912.52 ± 0.81
15875 kPa | 912.75 ± 0.81
15900 kPa | 912.9 ± 0.81
15925 kPa | 913.04 ± 0.81
15950 kPa | 913.17 ± 0.81
15975 kPa | 913.37 ± 0.81
16000 kPa | 913.55 ± 0.81
16025 kPa | 913.66 ± 0.81
16050 kPa | 913.83 ± 0.81
16075 kPa | 913.99 ± 0.81
16100 kPa | 914.15 ± 0.81
16125 kPa | 914.31 ± 0.81
16150 kPa | 914.45 ± 0.81
16175 kPa | 914.56 ± 0.81
16200 kPa | 914.73 ± 0.81
16225 kPa | 914.89 ± 0.81
16250 kPa | 915.05 ± 0.81
16275 kPa | 915.22 ± 0.81
16300 kPa | 915.38 ± 0.81
16325 kPa | 915.54 ± 0.81
16350 kPa | 915.71 ± 0.81
16375 kPa | 915.87 ± 0.81
16400 kPa | 916.03 ± 0.81
16425 kPa | 916.2 ± 0.81
16450 kPa | 916.37 ± 0.81
16475 kPa | 916.52 ± 0.81
16500 kPa | 916.75 ± 0.81
16525 kPa | 916.93 ± 0.81
16550 kPa | 917.01 ± 0.81
16575 kPa | 917.25 ± 0.81
16600 kPa | 917.37 ± 0.81
16625 kPa | 917.58 ± 0.81
16650 kPa | 917.7 ± 0.81
16675 kPa | 917.9 ± 0.81
16700 kPa | 918.08 ± 0.81
16725 kPa | 918.24 ± 0.81
16750 kPa | 918.41 ± 0.81
16775 kPa | 918.57 ± 0.81
16800 kPa | 918.73 ± 0.81
16825 kPa | 918.9 ± 0.81
16850 kPa | 919.06 ± 0.81
16875 kPa | 919.22 ± 0.81
16900 kPa | 919.43 ± 0.81
16925 kPa | 919.55 ± 0.81
16950 kPa | 919.71 ± 0.81
16975 kPa | 919.95 ± 0.81
17000 kPa | 920.08 ± 0.81
17025 kPa | 920.29 ± 0.81
17050 kPa | 920.44 ± 0.81
17075 kPa | 920.59 ± 0.81
17100 kPa | 920.73 ± 0.81
17125 kPa | 920.92 ± 0.81
17150 kPa | 921.1 ± 0.81
17175 kPa | 921.27 ± 0.81
17200 kPa | 921.4 ± 0.81
17225 kPa | 921.53 ± 0.81
17250 kPa | 921.7 ± 0.81
17275 kPa | 921.85 ± 0.81
17300 kPa | 922.01 ± 0.81
17325 kPa | 922.18 ± 0.81
17350 kPa | 922.33 ± 0.81
17375 kPa | 922.5 ± 0.81
17400 kPa | 922.71 ± 0.81
17425 kPa | 922.85 ± 0.81
17450 kPa | 922.99 ± 0.81
17475 kPa | 923.17 ± 0.81
17500 kPa | 923.34 ± 0.81
17525 kPa | 923.48 ± 0.81
17550 kPa | 923.64 ± 0.81
17575 kPa | 923.77 ± 0.81
17600 kPa | 923.94 ± 0.81
17625 kPa | 924.11 ± 0.81
17650 kPa | 924.26 ± 0.81
17675 kPa | 924.4 ± 0.81
17700 kPa | 924.55 ± 0.81
17725 kPa | 924.7 ± 0.81
17750 kPa | 924.87 ± 0.81
17775 kPa | 925.03 ± 0.81
17800 kPa | 925.19 ± 0.81
17825 kPa | 925.35 ± 0.81
17850 kPa | 925.49 ± 0.81
17875 kPa | 925.61 ± 0.81
17900 kPa | 925.82 ± 0.81
17925 kPa | 925.93 ± 0.81
17950 kPa | 926.13 ± 0.81
17975 kPa | 926.25 ± 0.81
18000 kPa | 926.42 ± 0.81
18025 kPa | 926.56 ± 0.81
18050 kPa | 926.67 ± 0.81
18075 kPa | 926.86 ± 0.81
18100 kPa | 927.05 ± 0.81
18125 kPa | 927.16 ± 0.81
18150 kPa | 927.35 ± 0.81
18175 kPa | 927.46 ± 0.81
18200 kPa | 927.66 ± 0.81
18225 kPa | 927.75 ± 0.81
18250 kPa | 927.94 ± 0.81
18275 kPa | 928.06 ± 0.81
18300 kPa | 928.22 ± 0.81
18325 kPa | 928.38 ± 0.81
18350 kPa | 928.5 ± 0.81
18375 kPa | 928.68 ± 0.81
18400 kPa | 928.85 ± 0.81
18425 kPa | 928.95 ± 0.81
18450 kPa | 929.11 ± 0.81
18475 kPa | 929.27 ± 0.81
18500 kPa | 929.45 ± 0.81
18525 kPa | 929.53 ± 0.81
18550 kPa | 929.71 ± 0.81
18575 kPa | 929.88 ± 0.81
18600 kPa | 929.97 ± 0.81
18625 kPa | 930.13 ± 0.81
18650 kPa | 930.29 ± 0.81
18675 kPa | 930.46 ± 0.81
18700 kPa | 930.61 ± 0.81
18725 kPa | 930.69 ± 0.81
18750 kPa | 930.86 ± 0.81
18775 kPa | 931.01 ± 0.81
18800 kPa | 931.17 ± 0.81
18825 kPa | 931.25 ± 0.81
18850 kPa | 931.43 ± 0.81
18875 kPa | 931.59 ± 0.81
18900 kPa | 931.74 ± 0.81
18925 kPa | 931.9 ± 0.81
18950 kPa | 931.99 ± 0.81
18975 kPa | 932.14 ± 0.81
19000 kPa | 932.3 ± 0.81
19025 kPa | 932.45 ± 0.81
19050 kPa | 932.6 ± 0.81
19075 kPa | 932.74 ± 0.81
19100 kPa | 932.87 ± 0.81
19125 kPa | 933.01 ± 0.81
19150 kPa | 933.14 ± 0.81
19175 kPa | 933.29 ± 0.81
19200 kPa | 933.42 ± 0.81
19225 kPa | 933.56 ± 0.81
19250 kPa | 933.7 ± 0.81
19275 kPa | 933.83 ± 0.81
19300 kPa | 933.97 ± 0.81
19325 kPa | 934.1 ± 0.81
19350 kPa | 934.24 ± 0.81
19375 kPa | 934.38 ± 0.81
19400 kPa | 934.51 ± 0.81
19425 kPa | 934.64 ± 0.81
19450 kPa | 934.79 ± 0.81
19475 kPa | 934.91 ± 0.81
19500 kPa | 935.12 ± 0.81
19525 kPa | 935.24 ± 0.81
19550 kPa | 935.36 ± 0.81
19575 kPa | 935.49 ± 0.81
19600 kPa | 935.62 ± 0.81
19625 kPa | 935.75 ± 0.81
19650 kPa | 935.88 ± 0.81
19675 kPa | 936 ± 0.81
19700 kPa | 936.18 ± 0.81
19725 kPa | 936.26 ± 0.81
19750 kPa | 936.44 ± 0.81
19775 kPa | 936.57 ± 0.81
19800 kPa | 936.69 ± 0.81
19825 kPa | 936.81 ± 0.81
19850 kPa | 936.93 ± 0.81
19875 kPa | 937.05 ± 0.81
19900 kPa | 937.17 ± 0.81
19925 kPa | 937.36 ± 0.81
19950 kPa | 937.48 ± 0.81
19975 kPa | 937.6 ± 0.81
20000 kPa | 937.71 ± 0.81

Conditions | speed of sound
10080 kPa, x1 = 0.7534 | 529.7 ± 1 m/s
14970 kPa, x1 = 0.925 | 538.3 ± 1 m/s
14980 kPa, x1 = 0.7534 | 600.9 ± 1 m/s
14980 kPa, x1 = 0.925 | 537.1 ± 1 m/s
14990 kPa, x1 = 0.925 | 536.5 ± 1 m/s and 539.1 ± 1 m/s
15060 kPa, x1 = 0.8502 | 554 ± 0.9 m/s
19950 kPa, x1 = 0.925 | 600.2 ± 1 m/s
19960 kPa, x1 = 0.925 | 602.2 ± 1 m/s
20000 kPa, x1 = 0.8502 | 613.8 ± 1 m/s
20000 kPa, x1 = 0.925 | 599.6 ± 1 m/s and 601.7 ± 1 m/s
20030 kPa, x1 = 0.7534 | 657.7 ± 1 m/s
24940 kPa, x1 = 0.8502 | 663.5 ± 1 m/s
24970 kPa, x1 = 0.925 | 651.7 ± 1 m/s
24990 kPa, x1 = 0.925 | 651.3 ± 1 m/s
25000 kPa, x1 = 0.925 | 652.9 ± 1 m/s and 653 ± 1 m/s
29950 kPa, x1 = 0.925 | 696.6 ± 1 m/s
29980 kPa, x1 = 0.925 | 696.1 ± 1 m/s
29990 kPa, x1 = 0.925 | 696.8 ± 1 m/s
30000 kPa, x1 = 0.8502 | 707.4 ± 1 m/s
30010 kPa, x1 = 0.925 | 695.5 ± 1 m/s
30030 kPa, x1 = 0.7534 | 746.7 ± 1 m/s
34980 kPa, x1 = 0.7534 | 783.5 ± 1.1 m/s
34990 kPa, x1 = 0.925 | 735.2 ± 1 m/s
35000 kPa, x1 = 0.925 | 736.1 ± 1 m/s
35020 kPa, x1 = 0.925 | 734.8 ± 1 m/s
35060 kPa, x1 = 0.8502 | 746.3 ± 1 m/s
39980 kPa, x1 = 0.925 | 771.2 ± 1 m/s
39990 kPa, x1 = 0.925 | 770.5 ± 1 m/s and 770.1 ± 1 m/s
40000 kPa, x1 = 0.925 | 771.3 ± 1 m/s
40030 kPa, x1 = 0.8502 | 780.8 ± 1.1 m/s
